From patent publication US20220127297A1, “Novel Antibacterial 3"-Derivatives Of 4,6-Disubstituted 2,5-Dideoxystreptamine Aminoglycoside Antibiotics” (AGILeBiotics B.V., priority 2018, published 2022)
Like-named read-outs stand apart in the source and are kept apart here.

How the values were obtained:
P. stuartii B8-1 = experiment: MIC determination at Uppsala University; type: cell-based; settings: Providencia stuartii, B81, AAC(3)-Ic, ANT (3″)Ia, APH(3′)-IIa, APH(3′)-IIb, APH(3′)-VI, APH(6)-Ic
Excerpt: (§1) 3.4.1 MIC Determination at Uppsala University (Sweden)
(§2) Tested reference compounds. Amikacin disulfate (Cat. No. A1774, Sigma Aldrich), Apramycin sulfate (Cat. No. A2024, Sigma Aldrich) and Gentamicin sulfate (Cat. No. G1914, Sigma Aldrich).
(§3) Bacterial strains/isolates. All assayed laboratory and clinical strains (P. aeruginosa PA01, A. baumanii ATCC 19606, A. baumanii 195N(a), A. baumanii 48F, E. coli C1162, E. coli C1181, M. morgannii S49 and P. stuartii B8-1) were from the IMI ND4BB ENABLE consortium strain collection. ATCC laboratory strains were acquired directly from the American Type Culture Collection. Clinical strains used were previously published (M Juhas, et al. J. Antimicrob. Chemother., 74 (4), 944-952 (2019); D. Hughes et al., Antimicrob. Agents Chemother., 47 (10), 3222-3232 (2003)) and were resistance genotyped within the ENABLE consortium.
(§4) Culture media and equipment. Water (Thermo Scientific, R05819); Mueller-Hinton II broth (BD Ref. 212322); sterile round-bottom 96-well plates (Thermo Scientific, 262162); Sensititre Nephelometer (ThermoFisher Scientific, V3011); 0.5 McFarland Standard (ThermoFisher Scientific, E1041); sterile polyester film (VWR, 391-1251).
(§5) Compound preparation. MIC assay procedure follows the CLSI M07 standard method (Clinical and Laboratory Standards Institute (CLSI); Methods for dilution antimicrobial susceptibility tests for bacteria that grow aerobically; approved standard—eleventh edition, M07-A10, Vol. 38, No. 2, 2018). Test compounds were received as solids and were dissolved in water to a concentration of 10 mg/mL of active compound. […] This solution was serially diluted in 2-fold steps in the first 10 columns of sterile round-bottom 96-well plates, while the final two columns were filled with Mueller-Hinton II broth without added compound for use as positive and negative growth controls.
(§6) Inoculum preparation. Inoculums were prepared by suspending several colonies freshly streaked culture of test strains in 5 mL of sterile 0.9% NaCl. The cell density of the inoculum solution was assessed and adjusted using a Sensititre Nephelometer and a 0.5 McFarland Standard. The inoculum was diluted 1:100 in Mueller-Hinton II broth and 50 μL of this inoculum solution was added to 50 μL of the test compound solutions yielding a concentration range of 64-0.125 μg/mL. The plates were sealed with sterile polyester film and stationarily incubated at 37° C. for 18 hours.
(§7) MIC determination. The MIC value was determined by visual inspection of bacterial growth within 96-well plates. The lowest concentration completely inhibiting growth was reported as the MIC for each strain and compound combination.

A. baumanii 48F = experiment: MIC determination at Uppsala University; type: cell-based; settings: Acinetobacter baumannii; A. boumanii 48F; ANT(2″)Ia, APH(3″)-Ib, APH(3′)-VIa, APH(6)-Id
Excerpt: as §1, §2, §3, §4, §5, §6, §7

[1] = tested on: Klebsiella pneumoniae ATCC BAA-1705; settings: for Avg. Log CFU/g thigh: BID; for decrease in CFU number in thighs in comparison to the vehicle control group: doses of 16 and 64 mg/kg (SC, BID)
Experimental: 4.2 Murine Neutropenic Thigh Model of Infection (Kiebsiella Pneumoniae ATCC BAA-1705)
All animal-related research is conducted in accordance with 2010/63/EU and National legislation regulating the use of laboratory animals in scientific research and for other purposes (Official Gazette 55/13).
In vivo studies and CFU determination were performed by Fidelta (Zagreb, Croatia) and all mice were obtained from Charles River Laboratories (Italy).
Two compounds, i.e. ABX5006 and ABX5020, and a comparator antibiotic (amikacin sulfate; Cat. No. 01693, Chem-Impex) were tested in a mouse model of thigh infection with Klebsiella pneumoniae ATCC BAA-1705.
Neutropenic thigh model: Pathogen-free male CD-1 mice (6 mice per dosing group) weighing 36±4 g were used. Prior to infection, neutropenia was induced in mice by two cyclophosphamide doses applied intraperitoneally four days (150 mg/kg body weight) and one day prior to infection (100 mg/kg body weight). […] For subcutaneous treatment, pre-weighed test item powder (ABX5006) was dissolved in PBS and the pH was adjusted (to reach a near-neutral pH), to reach a final concentration of 6.4 mg/mL for a dose of 64 mg/kg (group 3) or 1.6 mg/mL for a dose of 16 mg/kg (group 2). For subcutaneous treatment, pre-weighed test item powder (ABX5020) was dissolved in PBS and the pH was adjusted (to reach a near-neutral pH), to reach a final concentration of 6.4 mg/mL for a dose of 64 mg/kg (group 7) or 1.6 mg/mL for a dose of 16 mg/kg (group 6). For subcutaneous treatment, pre-weighed reference compound (amikacin sulfate) was dissolved in PBS and the pH was adjusted (to reach a near-neutral pH), to reach a final concentration of 6.4 mg/mL for a dose of 64 mg/kg (group 5) or 1.6 mg/mL for a dose of 16 mg/kg (group 4). Each mouse was infected with Klebsiella pneumoniae ATCC BAA-1705 (1.18×10^6/thigh), under light ketamine/xylazine anesthesia, by intramuscular administration of 0.10 mL of a suspension containing bacteria into both thighs. Animals were dosed subcutaneously twice with 8 h interval. Treatment was started 1 h following infection either with Vehicle—PBS (group 1) or amikacin sulfate (groups 4-5) or test compounds (groups 2-3 and 6-7) as described above. All Mice were overdosed with ketamine/xylazine 24 hours post infection. Thighs were aseptically removed and separately placed into sterile Precellys test tubes containing 2 mL of sterile PBS. Precellys test tubes were weighed and the weight was recorded prior and post-sampling. Each thigh was homogenized in sterile PBS using Ultraturax, IKA. After homogenizing, a serial dilution of the homogenates was used for CFU determination. A CFU count of each thigh acted as a single result.
Supplies/Chemicals. BBL™ Mueller Hinton Broth (REF 275730, Becton Dickinson); BBL™ Mueller Hinton Agar 2 (REF 211438, Becton Dickinson); PBS (Cat. No. P4417, Sigma); Saline (Serial No. 1422115, HZ™); Xylazine 2% (Alfasan, International B.V.); Narkamon (100 mg/mL ketamine chloride, Bioveta); Cyclophosphamide monohydrate (No. C2236, TCI); Sterile, single use needles (BD MICROLANCE Kanuele, 27 G, REF 300220, Becton Dickinson); 5 mL syringes (BD Plastipak, REF 300013, Becton Dickinson).
Anesthesia. 1 mL of Narkamon, 0.2 mL of Xylazine and 9 mL of saline; Dose volume: 10 mL/kg body weight.
Inoculum preparation for intramuscular infection. The strain was streaked out onto MH agar. On the following day Mueller-Hinton broth was inoculated with several colonies of Klebsiella pneumoniae and incubated at 37° C. in an orbital shaker until log phase of growth was reached (OD600=0.6). Log bacteria was centrifuged and suspended in equal volume of sterile PBS and subsequently diluted to obtain a bacterial suspension of adequate inoculum size.

| Compound | MIC90 (P. stuartii B8-1) [µg/mL] | MIC90 (A. baumanii 48F) [µg/mL] | Avg. Log CFU/g thigh ([1]; dose 16 mg/kg, SC) [Log CFU/g] | Avg. Log CFU/g thigh ([1]; dose 64 mg/kg, SC) [Log CFU/g] | decrease in CFU number in thighs in comparison to the vehicle control group [1] | animals euthanized prior to second dose due to weak clinical condition ([1]; infected neutropenic mice, SC) |
| --- | --- | --- | --- | --- | --- | --- |
| NCC[C@H](O)C(=O)N[C@@H]1C[C@H](N)[C@@H](O[C@H]2O[C@H](CN)[C@@H](O)[C@H](O)[C@H]2O)[C@H](O)[C@H]1O[C@H]1O[C@H](CO)[C@@H](O)[C@H](N)[C@H]1O [Amikacin, amikacin, reference compound] | > 64 | > 64 | 8.19 | 7.24 | did not significantly decrease CFU counts in thighs |  |
| N=C(NC[C@@H]1CCNC1)NC1[C@@H](O)C(OC2[C@@H](F)[C@H](O[C@H]3OC(CN)[C@@H](O)CC3N)C(N)C[C@H]2NC(=O)[C@@H](O)CCN)O[C@H](CO)[C@H]1O (stereo partly drawn) [ABX5039, Tobra-AHB-F-Gua (R) pyrrolidine-3-ylmethyl] | 2 | 4 |  |  |  |  |
| N=C(NC[C@@H]1CCCN1)NC1[C@@H](O)C(OC2[C@@H](F)[C@H](O[C@H]3OC(CN)[C@@H](O)CC3N)C(N)C[C@H]2NC(=O)[C@@H](O)CCN)O[C@H](CO)[C@H]1O (stereo partly drawn) [ABX5026, Tobra-AHB-F-Gua (S) pyrrolidine-2-yl-methyl] | 2 | 4 |  |  |  |  |
| N=C(N)NC1C(O)[C@@H](CO)OC(OC2C(F)[C@H](O[C@H]3OC(CN)[C@@H](O)CC3N)C(N)C[C@H]2NC(=O)[C@@H](O)CCN)[C@@H]1O (stereo partly drawn) [ABX5006, Tobra-AHB-F-Gua] | 4 | 4 | 6.08 | 5.69 | 2.8-3.2 log 10 |  |
| N=C(NCCN)NC1C(O)[C@@H](CO)OC(OC2C(F)[C@H](O[C@H]3OC(CN)[C@@H](O)CC3N)C(N)C[C@H]2NC(=O)[C@@H](O)CCN)[C@@H]1O (stereo partly drawn) [ABX5020, Tobra-AHB-F-Gua-2-amino-ethyl] |  |  | 6.18 | 5.29 | 2.7-3.6 log 10 | Two animals |
